From US10376520B2, “Methods for the treatment of cardiovascular disorders” (Galapagos NV, priority 2015, dated 2019)

Test system: RA patients
Test: [HDL] determination, Study 2 (RA patients, monotherapy)
Assay type: in vivo, human
Description: Randomized, double-blind, placebo-controlled, multicenter, phase IIb dose finding study of Compound 1 (dosed as a [Compound 1:HCl:3H2O]) administered for 24 weeks as monotherapy to subjects with moderately to severely active rheumatoid arthritis who have an inadequate response to methotrexate alone
Double-blind, placebo-controlled, monotherapy study in subjects with moderately to severely active RA who have an inadequate response to methotrexate (MTX) (oral or parenteral).
280 subjects randomized to one of 3 doses of Compound 1 (dosed as a [Compound 1:HCl:3H2O]) or to placebo, given once daily (q.d.).
Twelve weeks of treatment with Compound 1 (dosed as a [Compound 1:HCl:3H2O]) at 50 mg, 100 mg, or 200 mg q.d.; or placebo. At Week 12, all subjects on placebo and the subjects on the 50 mg dose who have not achieved 20% improvement in swollen joint count (SJC66) and tender joint count (TJC68) will be assigned to 100 mg q.d. in a blinded fashion and will continue treatment until Week 24. Subjects in the other groups will maintain their randomized treatment until Week 24.
This assay relies on a homogeneous enzymatic colorimetric test. In the presence of magnesium ions, dextran sulfate selectively forms water-soluble complexes with LDL, VLDL and chylomicrons which are resistant to PEG-modified enzymes.
The cholesterol concentration of [HDL]-cholesterol is determined enzymatically by cholesterol esterase and cholesterol oxidase coupled with PEG to the amino groups (approx. 40%).
In the presence of peroxidase, the hydrogen peroxide generated reacts with 4-amino-antipyrine and Sodium N-(2-hydroxy-3-sulfopropyl)-3,5-dimethoxyaniline (HSDA) to form a purple-blue dye. The color intensity of this dye is directly proportional to the cholesterol concentration and is measured photometrically.
Human serum and plasma samples [HDL] determination was done on a Roche/Hitachi Cobas c 701/702 system which automatically calculate the analyte concentration of each sample. Samples containing precipitates are centrifuged before performing the assay.

[1] = placebo switching to 100 mg q.d. at week 12 (N = 72), week 16
[2] = placebo switching to 100 mg q.d. at week 12 (N = 72), week 20
[3] = placebo switching to 100 mg q.d. at week 12 (N = 72), week 24
[4] = placebo switching to 100 mg q.d. at week 12, week 16
[5] = placebo switching to 100 mg q.d. at week 12, week 20
[6] = placebo switching to 100 mg q.d. at week 12, week 24

SMILES: O=C(Nc1nc2cccc(-c3ccc(CN4CCS(=O)(=O)CC4)cc3)n2n1)C1CC1 [Compound 1, cyclopropanecarboxylic acid {5-[4-(1,1-dioxo-thiomorpholin-4-ylmethyl)-phenyl]-[1,2,4]triazolo[1,5-a]pyridin-2yl}-amide]
- [HDL] Mean CFB - 24 weeks results (100 mg q.d. (N = 70), week 8): 0.17 mmol/L
- [HDL] Median CFB (100 mg q.d. (N = 70), week 8): 0.140 mmol/L
- [HDL] Median CFB - 24 weeks results (100 mg q.d. (N = 70), week 8): 0.14 mmol/L
- [HDL] Mean CFB (100 mg q.d. (N = 70), week 12): 0.190 mmol/L
- [HDL] Mean CFB - 24 weeks results (100 mg q.d. (N = 70), week 12): 0.19 mmol/L
- [HDL] Median CFB (100 mg q.d. (N = 70), week 12): 0.150 mmol/L
- [HDL] Median CFB - 24 weeks results (100 mg q.d. (N = 70), week 12): 0.15 mmol/L
- [HDL] Mean CFB - 24 weeks results (100 mg q.d. (N = 70), week 16): 0.23 mmol/L
- [HDL] Median CFB - 24 weeks results (100 mg q.d. (N = 70), week 16): 0.20 mmol/L
- [HDL] Mean CFB - 24 weeks results (100 mg q.d. (N = 70), week 20): 0.19 mmol/L
- [HDL] Median CFB - 24 weeks results (100 mg q.d. (N = 70), week 20): 0.17 mmol/L
- [HDL] Mean CFB - 24 weeks results (100 mg q.d. (N = 70), week 24): 0.18 mmol/L
- [HDL] Median CFB - 24 weeks results (100 mg q.d. (N = 70), week 24): 0.18 mmol/L
- [HDL] Mean percentage CFB - 12 weeks results (100 mg q.d., week 1): 7.49%
- [HDL] Mean percentage CFB - 24 weeks results (100 mg q.d., week 1): 7.49%
- [HDL] Median percentage CFB - 12 weeks results (100 mg q.d., week 1): 3.27%
- [HDL] Mean percentage CFB - 12 weeks results (100 mg q.d., week 2): 11.30%
- [HDL] Mean percentage CFB - 24 weeks results (100 mg q.d., week 2): 11.30%
- [HDL] Median percentage CFB - 12 weeks results (100 mg q.d., week 2): 8.75%
- [HDL] Mean percentage CFB - 12 weeks results (100 mg q.d., week 4): 15.65%
- [HDL] Mean percentage CFB - 24 weeks results (100 mg q.d., week 4): 15.65%
- [HDL] Median percentage CFB - 12 weeks results (100 mg q.d., week 4): 12.66%
- [HDL] Mean percentage CFB - 12 weeks results (100 mg q.d., week 8): 13.77%
- [HDL] Mean percentage CFB - 24 weeks results (100 mg q.d., week 8): 13.77%
- [HDL] Median percentage CFB - 12 weeks results (100 mg q.d., week 8): 9.33%
- [HDL] Mean percentage CFB - 12 weeks results (100 mg q.d., week 12): 15.23%
- [HDL] Mean percentage CFB - 24 weeks results (100 mg q.d., week 12): 15.23%
- [HDL] Median percentage CFB - 12 weeks results (100 mg q.d., week 12): 11.86%
- [HDL] Median percentage CFB - 24 weeks results (100 mg q.d., week 16): 14.81%
- [HDL] Mean percentage CFB - 24 weeks results (100 mg q.d., week 20): 14.51%
- [HDL] Median percentage CFB - 24 weeks results (100 mg q.d., week 20): 13.29%
- [HDL] Mean percentage CFB - 24 weeks results (100 mg q.d., week 24): 15.18%
- [HDL] Median percentage CFB - 24 weeks results (100 mg q.d., week 24): 12.54%
- [HDL] Mean CFB (200 mg q.d. (N = 69), week 1): 0.026 mmol/L
- [HDL] Mean CFB - 24 weeks results (200 mg q.d. (N = 69), week 1): 0.03 mmol/L
- [HDL] Median CFB (200 mg q.d. (N = 69), week 1): 0.030 mmol/L
- [HDL] Median CFB - 24 weeks results (200 mg q.d. (N = 69), week 1): 0.03 mmol/L
- [HDL] Mean CFB (200 mg q.d. (N = 69), week 2): 0.163 mmol/L
- [HDL] Mean CFB - 24 weeks results (200 mg q.d. (N = 69), week 2): 0.16 mmol/L
- [HDL] Median CFB (200 mg q.d. (N = 69), week 2): 0.150 mmol/L
- [HDL] Median CFB - 24 weeks results (200 mg q.d. (N = 69), week 2): 0.15 mmol/L
- [HDL] Mean CFB (200 mg q.d. (N = 69), week 4): 0.220 mmol/L
- [HDL] Mean CFB - 24 weeks results (200 mg q.d. (N = 69), week 4): 0.22 mmol/L
- [HDL] Median CFB (200 mg q.d. (N = 69), week 4): 0.210 mmol/L
- [HDL] Median CFB - 24 weeks results (200 mg q.d. (N = 69), week 4): 0.21 mmol/L
- [HDL] Mean CFB (200 mg q.d. (N = 69), week 8): 0.219 mmol/L
- [HDL] Mean CFB - 24 weeks results (200 mg q.d. (N = 69), week 8): 0.22 mmol/L
- [HDL] Median CFB (200 mg q.d. (N = 69), week 8): 0.200 mmol/L
- [HDL] Median CFB - 24 weeks results (200 mg q.d. (N = 69), week 8): 0.20 mmol/L
- [HDL] Mean CFB (200 mg q.d. (N = 69), week 12): 0.194 mmol/L
- [HDL] Mean CFB - 24 weeks results (200 mg q.d. (N = 69), week 12): 0.19 mmol/L
- [HDL] Median CFB (200 mg q.d. (N = 69), week 12): 0.150 mmol/L
- [HDL] Median CFB - 24 weeks results (200 mg q.d. (N = 69), week 12): 0.15 mmol/L
- [HDL] Mean CFB - 24 weeks results (200 mg q.d. (N = 69), week 16): 0.19 mmol/L
- [HDL] Median CFB - 24 weeks results (200 mg q.d. (N = 69), week 16): 0.16 mmol/L
- [HDL] Mean CFB - 24 weeks results (200 mg q.d. (N = 69), week 20): 0.21 mmol/L
- [HDL] Median CFB - 24 weeks results (200 mg q.d. (N = 69), week 20): 0.16 mmol/L
- [HDL] Mean CFB - 24 weeks results (200 mg q.d. (N = 69), week 24): 0.19 mmol/L
- [HDL] Median CFB - 24 weeks results (200 mg q.d. (N = 69), week 24): 0.16 mmol/L
- [HDL] Mean percentage CFB - 12 weeks results (200 mg q.d., week 1): 2.04%
- [HDL] Mean percentage CFB - 24 weeks results (200 mg q.d., week 1): 2.04%
- [HDL] Median percentage CFB - 12 weeks results (200 mg q.d., week 1): 2.50%
- [HDL] Mean percentage CFB - 12 weeks results (200 mg q.d., week 2): 11.20%
- [HDL] Mean percentage CFB - 24 weeks results (200 mg q.d., week 2): 11.20%
- [HDL] Median percentage CFB - 12 weeks results (200 mg q.d., week 2): 9.92%
- [HDL] Mean percentage CFB - 12 weeks results (200 mg q.d., week 4): 15.68%
- [HDL] Mean percentage CFB - 24 weeks results (200 mg q.d., week 4): 15.68%
- [HDL] Median percentage CFB - 12 weeks results (200 mg q.d., week 4): 14.18%
- [HDL] Mean percentage CFB - 12 weeks results (200 mg q.d., week 8): 15.24%
- [HDL] Mean percentage CFB - 24 weeks results (200 mg q.d., week 8): 15.24%
- [HDL] Median percentage CFB - 12 weeks results (200 mg q.d., week 8): 16.35%
- [HDL] Mean percentage CFB - 12 weeks results (200 mg q.d., week 12): 14.60%
- [HDL] Mean percentage CFB - 24 weeks results (200 mg q.d., week 12): 14.60%
- [HDL] Median percentage CFB - 12 weeks results (200 mg q.d., week 12): 12.00%
- [HDL] Mean percentage CFB - 24 weeks results (200 mg q.d., week 16): 13.07%
- [HDL] Mean percentage CFB - 24 weeks results (200 mg q.d., week 20): 15.18%
- [HDL] Median percentage CFB - 24 weeks results (200 mg q.d., week 20): 11.54%
- [HDL] Mean percentage CFB - 24 weeks results (200 mg q.d., week 24): 13.79%
- [HDL] Median percentage CFB - 24 weeks results (200 mg q.d., week 24): 11.96%
- [HDL] Mean CFB - 24 weeks results [1]: 0.19 mmol/L
- [HDL] Median CFB - 24 weeks results [1]: 0.16 mmol/L
- [HDL] Mean CFB - 24 weeks results [2]: 0.19 mmol/L
- [HDL] Median CFB - 24 weeks results [2]: 0.18 mmol/L
- [HDL] Mean CFB - 24 weeks results [3]: 0.16 mmol/L
- [HDL] Median CFB - 24 weeks results [3]: 0.15 mmol/L
- [HDL] Mean percentage CFB - 24 weeks results [4]: 16.36%
- [HDL] Median percentage CFB - 24 weeks results [4]: 10.82%
- [HDL] Mean percentage CFB - 24 weeks results [5]: 16.02%
- [HDL] Median percentage CFB - 24 weeks results [5]: 13.11%
- [HDL] Mean percentage CFB - 24 weeks results [6]: 13.47%
- [HDL] Median percentage CFB - 24 weeks results [6]: 11.36%
